Data set [1] has as its system BET proteins (BRD2, BRD3 or BRD4). Nature of the data set: Western blot of BET protein degradation, parental vs degrader-resistant cells. Format: cell-based. To be noted: tariquidar 0.1 μM, 24 hours; A1847 dBET6-R, SUM159 MZ1-R (maintained in PROTAC). For orientation: In western blotting, separated proteins are transferred to a membrane and probed.
Experimental: (§1) Samples were harvested in MIB lysis buffer (50 mM HEPES (pH 7.5), 0.5% Triton X-100, 150 mM NaCl, 1 mM EDTA, 1 mM EGTA, 10 mM sodium fluoride, 2.5 mM sodium orthovanadate, 1× protease inhibitor cocktail (Roche), and 1% each of phosphatase inhibitor cocktails 2 and 3 (Sigma)). Particulate was removed by centrifugation of lysates at 21,000 rpm for 15 minutes at 4° C. Lysates were subjected to SDS-PAGE chromatography and transferred to PVDF membranes before western blotting with primary antibodies. […] Secondary HRP-anti-rabbit and HRP-anti-mouse were obtained from ThermoFisher Scientific. SuperSignal West Pico and Femto Chemiluminescent Substrates (Thermo) were used to visualize blots.
In a further data set the target is T1, KRASG12C (Homo sapiens, UniProt P01116, G12C).
T1 construct: endogenous in cells; host or cells: SW1463
Kind of data set: Western blot of KRASG12C and effector signaling in SW1463 cells. The class given is cell-based. To be noted: SW1463; lapatinib 5 μM or tariquidar 0.01 μM, 48 hours.

The subject of the next data set is SW1463 cells. Kind of data set: CellTiter-Glo viability with Bliss drug synergy analysis in SW1463 cells. The class given is cell-based. A general note: In ATP-based viability assays light output follows the ATP content of the culture.
The test system of the next data set is A1847 or SUM159 cells. Nature of the data set: Colony formation assay (14 days, crystal violet). To be noted: SUM159 cells expressing Flag-MDR1, MZ1 0.1 μM, with or without tariquidar 0.1 μM.
Data set [2] has as its system OVCAR3, HCT116, and MOLT4 cells. Kind of data set: CellTiter-Glo cell viability, parental vs MZ1 chronically exposed cells. To be noted: MZ1-R OVCAR3 and HCT116 vs parental.
Another data set concerns SW837 cells. Kind of data set: CellTiter-Glo viability with Bliss drug synergy analysis in SW837 cells.
Data set [3] has as its system A1847 and SUM159 parental and degrader-resistant cells. Nature of the data set: CellTiter-Glo cell viability, parental vs degrader-resistant cells. As to conditions: increasing concentrations; A1847 dBET6-R, Thal-R, MZ1-R and SUM159 MZ1-R.
A further data set has as its target MDR1 (Homo sapiens, UniProt P08183). Nature of the data set: Rhodamine 123 efflux assay in degrader-resistant cells. The class given is cell-based. Further details: endogenous in cells; host or cells: A1847 parental, dBET6-R, Thal-R; SUM159 parental, MZ1-R. As to conditions: A1847 dBET6-R, Thal-R or MZ1-R SUM159 cells compared to parental cells. The procedure: Efflux assay was performed according to manufacturer's protocol (Millipore Sigma #ECM910). Cells were resuspended in cold efflux buffer and incubated with Rhodamine 123 for 1 hour on ice. Cells were centrifuged and treated in warm efflux buffer with DMSO or drug for 30-60 minutes, washed with cold PBS, and effluxed dye was quantified with a plate reader at an excitation wavelength of 485 nm and an emission wavelength of 530 nm.

The next data set concerns the target CDK9 (Homo sapiens, UniProt P50750). Kind of data set: Western blot of CDK9 degradation, A1847 parental vs Thal-R cells. The class given is cell-based. To be noted: tariquidar 0.1 μM, 24 hours; A1847 Thal-R.

Chain of MDR1 (P08183 whole entry): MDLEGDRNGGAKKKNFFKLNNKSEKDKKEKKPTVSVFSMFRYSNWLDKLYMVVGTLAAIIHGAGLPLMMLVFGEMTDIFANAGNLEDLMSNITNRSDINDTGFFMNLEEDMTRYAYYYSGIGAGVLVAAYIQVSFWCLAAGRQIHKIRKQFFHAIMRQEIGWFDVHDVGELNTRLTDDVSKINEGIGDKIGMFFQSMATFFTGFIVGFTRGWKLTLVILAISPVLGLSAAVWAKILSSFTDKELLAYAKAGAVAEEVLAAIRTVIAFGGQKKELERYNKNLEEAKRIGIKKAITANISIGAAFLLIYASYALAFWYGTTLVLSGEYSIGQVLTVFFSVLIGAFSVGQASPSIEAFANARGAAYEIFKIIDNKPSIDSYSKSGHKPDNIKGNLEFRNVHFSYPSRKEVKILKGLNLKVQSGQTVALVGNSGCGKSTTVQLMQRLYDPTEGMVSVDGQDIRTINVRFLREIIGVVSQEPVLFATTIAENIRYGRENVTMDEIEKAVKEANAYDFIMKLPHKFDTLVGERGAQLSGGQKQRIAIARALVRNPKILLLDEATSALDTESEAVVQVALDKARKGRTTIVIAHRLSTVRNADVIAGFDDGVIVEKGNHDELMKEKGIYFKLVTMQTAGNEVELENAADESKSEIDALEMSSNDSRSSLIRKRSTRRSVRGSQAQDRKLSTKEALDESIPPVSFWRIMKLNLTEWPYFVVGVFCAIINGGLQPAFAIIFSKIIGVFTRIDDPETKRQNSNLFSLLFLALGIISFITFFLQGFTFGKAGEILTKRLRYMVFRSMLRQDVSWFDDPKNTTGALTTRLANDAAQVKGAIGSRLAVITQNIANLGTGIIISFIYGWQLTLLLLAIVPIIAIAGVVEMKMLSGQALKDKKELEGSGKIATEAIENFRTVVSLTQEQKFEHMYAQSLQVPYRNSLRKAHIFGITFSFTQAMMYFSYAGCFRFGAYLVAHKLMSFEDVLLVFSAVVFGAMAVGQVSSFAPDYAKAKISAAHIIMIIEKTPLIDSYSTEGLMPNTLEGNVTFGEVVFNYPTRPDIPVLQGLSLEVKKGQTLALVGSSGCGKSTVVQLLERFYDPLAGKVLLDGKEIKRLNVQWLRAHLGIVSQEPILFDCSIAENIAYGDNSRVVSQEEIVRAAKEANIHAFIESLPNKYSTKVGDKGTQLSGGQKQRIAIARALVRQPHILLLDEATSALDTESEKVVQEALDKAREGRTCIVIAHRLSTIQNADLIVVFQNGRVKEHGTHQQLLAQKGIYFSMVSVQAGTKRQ
Chain of CDK9 (P50750 whole entry): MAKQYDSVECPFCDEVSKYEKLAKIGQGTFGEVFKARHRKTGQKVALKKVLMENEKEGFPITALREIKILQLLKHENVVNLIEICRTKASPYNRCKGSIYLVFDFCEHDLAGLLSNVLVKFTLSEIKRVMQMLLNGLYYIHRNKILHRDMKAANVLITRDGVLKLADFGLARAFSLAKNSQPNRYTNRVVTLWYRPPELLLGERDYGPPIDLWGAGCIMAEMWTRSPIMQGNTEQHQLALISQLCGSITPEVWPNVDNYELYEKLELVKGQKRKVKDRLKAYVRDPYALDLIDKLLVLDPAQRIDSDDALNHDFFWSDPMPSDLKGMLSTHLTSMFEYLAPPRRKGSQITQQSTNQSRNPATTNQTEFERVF
Chain of CDK9 (O60563 whole entry partner): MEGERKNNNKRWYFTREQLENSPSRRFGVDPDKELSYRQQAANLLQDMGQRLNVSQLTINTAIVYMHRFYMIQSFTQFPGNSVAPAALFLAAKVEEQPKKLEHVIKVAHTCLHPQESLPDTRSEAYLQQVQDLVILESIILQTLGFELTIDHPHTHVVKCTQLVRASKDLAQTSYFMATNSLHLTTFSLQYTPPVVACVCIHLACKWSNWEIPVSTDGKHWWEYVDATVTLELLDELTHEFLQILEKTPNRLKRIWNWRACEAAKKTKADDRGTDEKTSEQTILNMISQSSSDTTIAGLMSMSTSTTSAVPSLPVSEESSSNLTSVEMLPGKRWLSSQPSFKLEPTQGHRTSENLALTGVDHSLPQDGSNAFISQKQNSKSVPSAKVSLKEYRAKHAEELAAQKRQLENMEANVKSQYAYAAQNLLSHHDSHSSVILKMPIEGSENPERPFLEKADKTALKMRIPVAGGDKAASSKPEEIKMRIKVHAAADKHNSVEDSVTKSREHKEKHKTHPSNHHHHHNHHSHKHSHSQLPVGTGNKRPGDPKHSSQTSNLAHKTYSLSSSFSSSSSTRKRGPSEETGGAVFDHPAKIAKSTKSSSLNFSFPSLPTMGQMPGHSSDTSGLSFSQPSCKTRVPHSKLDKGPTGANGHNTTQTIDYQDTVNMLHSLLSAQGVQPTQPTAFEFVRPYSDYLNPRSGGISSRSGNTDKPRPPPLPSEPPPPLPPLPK
Experimental for CDK9: as §1
Experimental for KRASG12C: as §1

With `COc1cc2c(cc1OC)CN(CCc1ccc(NC(=O)c3cc(OC)c(OC)cc3NC(=O)c3cnc4ccccc4c3)cc1)CC2` [tariquidar], in data set [1], the “degradation of BET proteins in degrader-resistant cells on MDR1 inhibition” value was “restored degradation of BET proteins or CDK9”. On KRASG12C, the “PROTAC-mediated degradation of KRASG12C on combining with LC-2” value is “improved PROTAC-mediated degradation of KRASG12C reducing protein levels”; the “phosphorylation of MEK and ERK on combining with LC-2” value was “reduced phosphorylation of MEK and ERK”. In addition, the “drug synergy with LC-2” value in the data set on SW1463 cells is “marginal synergy”. Further, in the data set on A1847 or SUM159 cells, the “colony formation with forced expression of Flag-MDR1” value was “could be blocked by tariquidar-treatment”. Also, in data set [2], the “sensitivity of MZ1-resistant cells (cell viability)” value was “increased sensitivity”. For the same molecule, in the data set on SW837 cells, the “drug synergy with LC-2” value is “marginal synergy”. In addition, the “sensitivity of degrader-resistant cells vs parental cells (cell viability)” value in data set [3] was “more sensitive”. For the same molecule, the “MDR1 drug efflux pump activity (efflux of Rhodamine 123)” value on MDR1 is reported as “reduced MDR1 drug efflux pump activity”. The “degradation of CDK9 in degrader-resistant cells on MDR1 inhibition” value at CDK9 is on record as “restored degradation of BET proteins or CDK9”.

Values taken from patent publication US20250041303A1, “COMBINATION THERAPY FOR CANCER TREATMENT” (INSTITUTE FOR CANCER RESEARCH D/B/A THE RESEARCH INSTITUTE …, priority 2021, published 2025).
